Experimental data taken from article PMC9120017, “Inhibition mechanism of the chloride channel TMEM16A by the pore blocker 1PBC” (Nature Communications, 2022).
Where two headings read alike, the source gives them in different places.

Biological target: T1, mouse TMEM16A mutant R515A (Mus musculus, UniProt Q8BHY3, R515A)
T1 construct: expressed in transfected cells; host or cells: HEK293T
T1 sequence (Q8BHY3 1-960 R515A): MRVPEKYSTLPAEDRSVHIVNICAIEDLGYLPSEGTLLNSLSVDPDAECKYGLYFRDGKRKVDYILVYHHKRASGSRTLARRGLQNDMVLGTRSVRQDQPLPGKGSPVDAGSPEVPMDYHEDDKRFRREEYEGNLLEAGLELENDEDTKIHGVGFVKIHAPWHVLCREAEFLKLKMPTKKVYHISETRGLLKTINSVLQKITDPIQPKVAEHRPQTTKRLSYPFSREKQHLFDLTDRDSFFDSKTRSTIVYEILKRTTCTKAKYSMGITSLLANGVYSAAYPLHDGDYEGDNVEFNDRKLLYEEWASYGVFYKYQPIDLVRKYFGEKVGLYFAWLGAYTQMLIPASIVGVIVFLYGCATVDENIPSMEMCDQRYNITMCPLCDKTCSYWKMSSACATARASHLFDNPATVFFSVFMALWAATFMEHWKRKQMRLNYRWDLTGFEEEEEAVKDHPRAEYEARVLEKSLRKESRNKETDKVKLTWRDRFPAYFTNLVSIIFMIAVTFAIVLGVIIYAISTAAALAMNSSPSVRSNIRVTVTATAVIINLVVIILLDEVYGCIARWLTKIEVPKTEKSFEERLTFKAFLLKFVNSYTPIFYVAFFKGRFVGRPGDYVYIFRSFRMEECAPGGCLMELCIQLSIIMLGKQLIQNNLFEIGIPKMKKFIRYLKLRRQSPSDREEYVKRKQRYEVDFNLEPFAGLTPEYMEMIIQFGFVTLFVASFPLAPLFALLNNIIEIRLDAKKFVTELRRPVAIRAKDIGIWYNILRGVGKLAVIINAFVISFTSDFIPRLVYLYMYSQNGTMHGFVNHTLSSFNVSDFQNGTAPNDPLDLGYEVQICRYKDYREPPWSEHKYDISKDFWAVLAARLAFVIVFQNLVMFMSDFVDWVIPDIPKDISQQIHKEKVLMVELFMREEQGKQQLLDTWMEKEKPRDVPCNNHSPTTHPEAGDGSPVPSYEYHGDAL
Test: Inside-out patch recording of 1PBC block, mutant R515A
Type: cell-based
Procedure: HEK293T cells (ATCC CRL-1573) were maintained in Dulbecco’s modified Eagle’s medium (DMEM; Sigma-Aldrich) supplemented with 10 U ml^−1 penicillin, 0.1 mg ml^−1 streptomycin (Sigma-Aldrich), 2 mM L-glutamine (Sigma-Aldrich), and 10% FBS (Sigma-Aldrich) in a humidified atmosphere containing 5% CO2 at 37 °C. HEK293S GnTI^− cells (ATCC CRL-3022) were maintained in HyClone HyCell TransFx-H medium (GE Healthcare) supplemented with 10 U ml^−1 penicillin, 0.1 mg ml^−1 streptomycin, 4 mM L-glutamine, 0.15% poloxamer 188 (Sigma-Aldrich), and 1% FBS in an atmosphere containing 5% CO2 at 185 rpm at 37 °C. The ac splice variant of mouse TMEM16A (UniProt ID: Q8BHY3), mouse TMEM16B (UniProt ID: Q8CFW1), or mouse TMEM16F (UniProt ID: Q6P9J9) bearing a 3C cleavage site, a Venus YFP, a Myc tag, and a Streptavidin-binding peptide (SBP) downstream of the open reading frame in a modified pcDNA3.1 vector (Invitrogen) were used as described previously[21],[31]. Mutations were introduced using a modified QuikChange method[58] and were verified by sequencing.
HEK293T cells were transfected with 3–4 μg DNA per 6 cm Petri dish using the calcium phosphate co-precipitation method and were used within 24–96 h after transfection. Recordings were performed on inside-out patches excised from HEK293T cells expressing the construct of interest. Patch pipettes were pulled from borosilicate glass capillaries (O.D. 1.5 mm, I.D. 0.86 mm, Sutter Instrument) and were fire-polished with a microforge (Narishige) before use. Pipette resistance was typically 3–8 MΩ when filled with the recording solutions detailed below. Seal resistance was typically 4 GΩ or higher. Voltage-clamp recordings were made using Axopatch 200B, Digidata 1550, and Clampex 10.7 (Molecular Devices). Analog signals were filtered with the in-built 4-pole Bessel filter at 10 kHz and were digitized at 20 kHz. Solution exchange was achieved using a gravity-fed system through a theta glass pipette mounted on an ultra-fast piezo-driven stepper (Siskiyou). […] All recordings were performed at 20 °C.
A symmetrical ionic condition was used throughout. Stock solution with Ca^2+-EGTA contained 150 mM NaCl, 5.99 mM Ca(OH)2, 5 mM EGTA, and 10 mM HEPES at pH 7.40. Stock solution with EGTA contained 150 mM NaCl, 5 mM EGTA, and 10 mM HEPES at pH 7.40. Free Ca^2+ concentrations were adjusted by mixing the stock solutions at the required ratios calculated using the WEBMAXC program (http://web.stanford.edu/~cpatton/webmaxcS.htm). Patch pipettes were filled with the stock solution with Ca^2+-EGTA, which has a free Ca^2+ concentration of 1 mM. 1PBC (ChemBridge) stock was reconstituted in anhydrous DMSO (Sigma-Aldrich) at 100 mM and stored at −20 °C. Working solutions with 1PBC were prepared by serial dilution. Unless otherwise stated, experiments were performed at a saturating Ca^2+ concentration as shown in Supplementary Table 1 and the primary data were corrected for current rundown as described previously[21],[25].
Concentration-response relations, obtained from the ratio of the I-V plots before and after the application of the blocker, were fitted to the Hill equation,1 I/Imax=1/1+IC50/[blocker]^h where I/Imax is the normalized current responses, IC50 defines the concentration at which inhibition is at its half-maximum, and h is the Hill coefficient.

N#Cc1c(C(F)(F)F)cc(O)n2c1nc1ccccc12 [1PBC]
IC50 (0 mV, 4 µM Ca2+): 120 µM | remaining activity at 10 µM (10 µM 1PBC, +80 mV, saturating Ca2+ (4 µM), read-out: I/Imax): 91.2% | remaining activity at 10 µM (10 µM 1PBC, -80 mV, saturating Ca2+ (4 µM), read-out: I/Imax): 93.3% | remaining activity at 30 µM (30 µM 1PBC, +80 mV, saturating Ca2+ (4 µM), read-out: I/Imax): 74.8% | remaining activity at 30 µM (30 µM 1PBC, -80 mV, saturating Ca2+ (4 µM), read-out: I/Imax): 86.5% | remaining activity at 100 µM (100 µM 1PBC, +80 mV, saturating Ca2+ (4 µM), read-out: I/Imax): 47.7% | remaining activity at 100 µM (100 µM 1PBC, -80 mV, saturating Ca2+ (4 µM), read-out: I/Imax): 61.6% | remaining activity at 10 µM (1PBC 10, 0 mV, read-out: fraction of unblocked current): 92.5% | remaining activity at 10 µM (1PBC 10, 20 mV, read-out: fraction of unblocked current): 92.3% | remaining activity at 10 µM (1PBC 10, 40 mV, read-out: fraction of unblocked current): 92.8% | remaining activity at 10 µM (1PBC 10, 60 mV, read-out: fraction of unblocked current): 91.6% | remaining activity at 10 µM (1PBC 10, 80 mV, read-out: fraction of unblocked current): 91.2% | remaining activity at 10 µM (1PBC 10, 100 mV, read-out: fraction of unblocked current): 93.9% | remaining activity at 10 µM (1PBC 10, 120 mV, read-out: fraction of unblocked current): 90.5% | remaining activity at 10 µM (1PBC 10, 140 mV, read-out: fraction of unblocked current): 93.5% | remaining activity at 10 µM (1PBC 10, -20 mV, read-out: fraction of unblocked current): 92.7% | remaining activity at 10 µM (1PBC 10, -40 mV, read-out: fraction of unblocked current): 91.8% | remaining activity at 10 µM (1PBC 10, -60 mV, read-out: fraction of unblocked current): 91.4% | remaining activity at 10 µM (1PBC 10, -80 mV, read-out: fraction of unblocked current): 93.3% | remaining activity at 10 µM (1PBC 10, -100 mV, read-out: fraction of unblocked current): 92.8% | remaining activity at 10 µM (1PBC 10, -120 mV, read-out: fraction of unblocked current): 91.8% | remaining activity at 10 µM (1PBC 10, -140 mV, read-out: fraction of unblocked current): 93.3% | remaining activity at 30 µM (1PBC 30, 0 mV, read-out: fraction of unblocked current): 79.3% | remaining activity at 30 µM (1PBC 30, 20 mV, read-out: fraction of unblocked current): 77.3% | remaining activity at 30 µM (1PBC 30, 40 mV, read-out: fraction of unblocked current): 75.6% | remaining activity at 30 µM (1PBC 30, 60 mV, read-out: fraction of unblocked current): 73.2% | remaining activity at 30 µM (1PBC 30, 80 mV, read-out: fraction of unblocked current): 74.8% | remaining activity at 30 µM (1PBC 30, 100 mV, read-out: fraction of unblocked current): 73.1% | remaining activity at 30 µM (1PBC 30, 120 mV, read-out: fraction of unblocked current): 70.9% | remaining activity at 30 µM (1PBC 30, 140 mV, read-out: fraction of unblocked current): 70% | remaining activity at 30 µM (1PBC 30, -20 mV, read-out: fraction of unblocked current): 81.4% | remaining activity at 30 µM (1PBC 30, -40 mV, read-out: fraction of unblocked current): 84% | remaining activity at 30 µM (1PBC 30, -60 mV, read-out: fraction of unblocked current): 84.5% | remaining activity at 30 µM (1PBC 30, -80 mV, read-out: fraction of unblocked current): 86.5% | remaining activity at 30 µM (1PBC 30, -100 mV, read-out: fraction of unblocked current): 87.5% | remaining activity at 30 µM (1PBC 30, -120 mV, read-out: fraction of unblocked current): 86.9% | remaining activity at 30 µM (1PBC 30, -140 mV, read-out: fraction of unblocked current): 85.6% | remaining activity at 100 µM (1PBC 100, 0 mV, read-out: fraction of unblocked current): 55% | remaining activity at 100 µM (1PBC 100, 20 mV, read-out: fraction of unblocked current): 53.1% | remaining activity at 100 µM (1PBC 100, 40 mV, read-out: fraction of unblocked current): 51% | remaining activity at 100 µM (1PBC 100, 60 mV, read-out: fraction of unblocked current): 49.1% | remaining activity at 100 µM (1PBC 100, 80 mV, read-out: fraction of unblocked current): 47.7% | remaining activity at 100 µM (1PBC 100, 100 mV, read-out: fraction of unblocked current): 46.8% | remaining activity at 100 µM (1PBC 100, 120 mV, read-out: fraction of unblocked current): 47.6% | remaining activity at 100 µM (1PBC 100, 140 mV, read-out: fraction of unblocked current): 48% | remaining activity at 100 µM (1PBC 100, -20 mV, read-out: fraction of unblocked current): 56.9% | remaining activity at 100 µM (1PBC 100, -40 mV, read-out: fraction of unblocked current): 59% | remaining activity at 100 µM (1PBC 100, -60 mV, read-out: fraction of unblocked current): 60.7% | remaining activity at 100 µM (1PBC 100, -80 mV, read-out: fraction of unblocked current): 61.6% | remaining activity at 100 µM (1PBC 100, -100 mV, read-out: fraction of unblocked current): 61.8% | remaining activity at 100 µM (1PBC 100, -120 mV, read-out: fraction of unblocked current): 62.9% | remaining activity at 100 µM (1PBC 100, -140 mV, read-out: fraction of unblocked current): 62.4% | IC50 (20 mV, 4 µM Ca2+): 110 µM | IC50 (40 mV, 4 µM Ca2+): 102 µM | IC50 (60 mV, 4 µM Ca2+): 92.1 µM | log-fold IC50 (change of mutant vs WT) (80 mV): 1.6299 | IC50 (80 mV, 4 µM Ca2+): 91.4 µM | IC50 (100 mV, 4 µM Ca2+): 88.7 µM | IC50 (120 mV, 4 µM Ca2+): 84.4 µM | IC50 (140 mV, 4 µM Ca2+): 86.1 µM | IC50 (-20 mV, 4 µM Ca2+): 131 µM | IC50 (-40 mV, 4 µM Ca2+): 145 µM | IC50 (-60 mV, 4 µM Ca2+): 153 µM | IC50 (-80 mV, 4 µM Ca2+): 166 µM | IC50 (-100 mV, 4 µM Ca2+): 169 µM | IC50 (-120 mV, 4 µM Ca2+): 172 µM | IC50 (-140 mV, 4 µM Ca2+): 168 µM | IC50 (R515A, V 0 mV): 120 µM | IC50 (R515A, V 20 mV): 110 µM | IC50 (R515A, V 40 mV): 102 µM | IC50 (R515A, V 60 mV): 92.1 µM | IC50 (R515A, V 80 mV): 91.4 µM | IC50 (R515A, V 100 mV): 88.7 µM | IC50 (R515A, V 120 mV): 84.4 µM | IC50 (R515A, V 140 mV): 86.1 µM | IC50 (R515A, V -20 mV): 131 µM | IC50 (R515A, V -40 mV): 145 µM | IC50 (R515A, V -60 mV): 153 µM | IC50 (R515A, V -80 mV): 166 µM | IC50 (R515A, V -100 mV): 169 µM | IC50 (R515A, V -120 mV): 172 µM | IC50 (R515A, V -140 mV): 168 µM
